Patent US7342000B2, “Semisynthetic macrolide antibiotics of the azalide series” (GlaxoSmithKline istrazivacki center Zagreb, priority 2002, dated 2008)

Tests used:
Assay in all cases: MIC by broth dilution (NCCLS M7-A2)
Type in all cases: cell-based
Conditions in all cases: 90% growth inhibition
[1] = test system: E. faecalis ATCC 29212
Description: (§1) MIC levels for all compound were determinated on panel of susceptible, and resistant Gram positive bacterial strains (S. aureus, S. pneumoniae and S. pyogenes) and on Gram negative strains (E. coli, H. influenzae, […], M. catarrhalis).

[2] = test system: E. coli ATCC 25922
Description: as §1

[3] = test system: S. aureus ATCC 13709
Description: as §1

[4] = test system: H. influenzae ATCC 49247
Description: as §1

[5] = test system: S. pyogenes iMLS
Description: as §1

[6] = test system: S. pneumoniae
Description: as §1

[7] = test system: M. catarrhalis ATCC 23246
Description: as §1

[8] = test system: S. pyogenes M
Description: as §1

[9] = test system: S. pyogenes
Description: as §1

| Compound | MIK [1] | MIK [2] | MIK [3] | MIK [4] | MIK [5] | MIK [6] | MIK [7] | MIK [8] | MIK [9] |
| --- | --- | --- | --- | --- | --- | --- | --- | --- | --- |
| CC[C@H]1OC(=O)[C@H](C)[C@@H](O[C@H]2C[C@@](C)(OC)[C@@H](O)[C@H](C)O2)[C@H](C)[C@@H](O[C@@H]2O[C@H](C)C[C@H](N(C)C)[C@H]2O)[C@](C)(O)C[C@@H](C)CN(CCCNC(=S)NCc2ccccc2)[C@H](C)[C@@H](O)[C@]1(C)O [Example 4, 9-Deoxo-9-dihydro-9a-N-(N′-benzylthiocarbamoyl-γ-aminopropyl)-9a-aza-9a-homoerithromycin A] | 8 µg/mL | 16 µg/mL | 2 µg/mL | 2 µg/mL | 2 µg/mL | ≦0.125 μg/ml | 1 µg/mL | 4 µg/mL | ≦0.125 μg/ml |
| CC[C@H]1OC(=O)[C@H](C)[C@@H](O[C@H]2C[C@@](C)(OC)[C@@H](O)[C@H](C)O2)[C@H](C)[C@@H](O[C@@H]2O[C@H](C)C[C@H](N(C)C)[C@H]2O)[C@](C)(O)C[C@@H](C)CN(CCCNC(=O)N(CCC#N)c2ccc3ccccc3c2)[C@H](C)[C@@H](O)[C@]1(C)O [Example 38, 9-Deoxo-9-dihydro-9a-N-[N′-(β-cyanoethyl)-N′-(2-naphtyl)carbamoyl-γ-aminopropyl]-9a-aza-9a-homoerithromycin A] | 8 µg/mL | 32 µg/mL | 1 µg/mL | 2 µg/mL | 2 µg/mL | ≦0.125 μg/ml | 0.5 µg/mL | 8 µg/mL | ≦0.125 μg/ml |
| CC[C@H]1OC(=O)[C@H](C)[C@@H](O[C@H]2C[C@@](C)(OC)[C@@H](O)[C@H](C)O2)[C@H](C)[C@@H](O[C@@H]2O[C@H](C)C[C@H](N(C)C)[C@H]2O)[C@](C)(O)C[C@@H](C)CN(CCCNC(=S)N(CCC#N)c2cccc3ccccc23)[C@H](C)[C@@H](O)[C@]1(C)O [Example 31, 9-Deoxo-9-dihydro-9a-N-[N′-(β-cyanoethyl)-N′-(1-naphtyl)thiocarbamoyl-γ-aminopropyl]-9a-aza-9a-homoerithromycin A] | 4 µg/mL | 8 µg/mL | 4 µg/mL | 2 µg/mL | 4 µg/mL | ≦0.125 μg/ml | 2 µg/mL | 4 µg/mL | ≦0.125 μg/ml |
| CC[C@H]1OC(=O)[C@H](C)[C@@H](O[C@H]2C[C@@](C)(OC)[C@@H](O)[C@H](C)O2)[C@H](C)[C@@H](O[C@@H]2O[C@H](C)C[C@H](N(C)C)[C@H]2O)[C@](C)(O)C[C@@H](C)CN(CCCNC(=O)Nc2cc(OC)c(OC)c(OC)c2)[C@H](C)[C@@H](O)[C@]1(C)O [Example 11, 9-Deoxo-9-dihydro-9a-N-[N′-(3,4,5-trimethoxyphenyl)carbamoyl-γ-aminopropyl]-9a-aza-9a-homoerithromycin A] | >64 µg/mL | >64 µg/mL | 4 µg/mL | 16 µg/mL | 32 µg/mL | ≦0.125 μg/ml | 16 µg/mL | 64 µg/mL | ≦0.125 μg/ml |
| CCC1OC(=O)C(C)C(OC2CC(C)(OC)C(O)C(C)O2)C(C)C(OC2OC(C)CC(N(C)C)C2O)C(C)(O)CC(C)CN(CCCNC(=S)N(CCC#N)Cc2ccccc2)C(C)C(O)C1(C)O (stereo not drawn) [Example 30, 9-Deoxo-9-dihydro-9a-N-[N′-(β-cyanoethyl)-N′-benzylthiocarbamoyl-γ-aminopropyl]-9a-aza-9a-homoerithromycin A] | 8 µg/mL | 16 µg/mL | 1 µg/mL | 2 µg/mL | 2 µg/mL | ≦0.125 μg/ml | 1 µg/mL | 4 µg/mL | ≦0.125 μg/ml |
| CC[C@H]1OC(=O)[C@H](C)[C@@H](O[C@H]2C[C@@](C)(OC)[C@@H](O)[C@H](C)O2)[C@H](C)[C@@H](O[C@@H]2O[C@H](C)C[C@H](N(C)C)[C@H]2O)[C@](C)(O)C[C@@H](C)CN(CCCNC(=O)N(CCC#N)CCCc2ccccc2)[C@H](C)[C@@H](O)[C@]1(C)O [Example 33, 9-Deoxo-9-dihydro-9a-N-[N′-(β-cyanoethyl)-N′-(3-phenylpropyl)carbamoyl-γ-aminopropyl]-9a-aza-9a-homoerithromycin A] | 16 µg/mL | 16 µg/mL | 1 µg/mL | 2 µg/mL | 4 µg/mL | ≦0.125 μg/ml | 1 µg/mL | 8 µg/mL | ≦0.125 μg/ml |
| CC[C@H]1OC(=O)[C@H](C)[C@@H](O[C@H]2C[C@@](C)(OC)[C@@H](O)[C@H](C)O2)[C@H](C)[C@@H](O[C@@H]2O[C@H](C)C[C@H](N(C)C)[C@H]2O)[C@](C)(O)C[C@@H](C)CN(CCCNC(=O)Nc2ccc3ccccc3c2)[C@H](C)[C@@H](O)[C@]1(C)O [Example 12, 9-Deoxo-9-dihydro-9a-N-[N′-(2-naphtyl)carbamoyl-γ-aminopropyl]-9a-aza-9a-homoerithromycin A] | 8 µg/mL | 32 µg/mL | 8 µg/mL | 2 µg/mL | 2 µg/mL | 16 µg/mL | 0.5 µg/mL | 8 µg/mL | ≦0.125 μg/ml |
| CC[C@H]1OC(=O)[C@H](C)[C@@H](O[C@H]2C[C@@](C)(OC)[C@@H](O)[C@H](C)O2)[C@H](C)[C@@H](O[C@@H]2O[C@H](C)C[C@H](N(C)C)[C@H]2O)[C@](C)(O)C[C@@H](C)CN(CCCNC(=O)NCCc2ccccc2)[C@H](C)[C@@H](O)[C@]1(C)O [Example 8, 9-Deoxo-9-dihydro-9a-N-[N′-(β-phenylethyl)carbamoyl-γ-aminopropyl]-9a-aza-9a-homoerithromycin A] | 16 µg/mL | 32 µg/mL | 1 µg/mL | 2 µg/mL | 4 µg/mL | ≦0.125 μg/ml | 1 µg/mL | 8 µg/mL | ≦0.125 μg/ml |
| CC[C@H]1OC(=O)[C@H](C)[C@@H](O[C@H]2C[C@@](C)(OC)[C@@H](O)[C@H](C)O2)[C@H](C)[C@@H](O[C@@H]2O[C@H](C)C[C@H](N(C)C)[C@H]2O)[C@](C)(O)C[C@@H](C)CN(CCCNC(=S)Nc2cccc3ccccc23)[C@H](C)[C@@H](O)[C@]1(C)O [Example 5] | 4 µg/mL | 8 µg/mL | 2 µg/mL | 2 µg/mL | 4 µg/mL | ≦0.125 μg/ml | 2 µg/mL | 4 µg/mL | ≦0.125 μg/ml |
| CC[C@H]1OC(=O)[C@H](C)[C@@H](O[C@H]2C[C@@](C)(OC)[C@@H](O)[C@H](C)O2)[C@H](C)[C@@H](O[C@@H]2O[C@H](C)C[C@H](N(C)C)[C@H]2O)[C@](C)(O)C[C@@H](C)CN(CCCNC(=O)NC(C)c2cccc3ccccc23)[C@H](C)[C@@H](O)[C@]1(C)O (stereo partly drawn) [Example 10] | 16 µg/mL | 64 µg/mL | 16 µg/mL | 2 µg/mL | 8 µg/mL | 8 µg/mL | 4 µg/mL | 16 µg/mL | ≦0.125 μg/ml |
| CC[C@H]1OC(=O)[C@H](C)[C@@H](O[C@H]2C[C@@](C)(OC)[C@@H](O)[C@H](C)O2)[C@H](C)[C@@H](O[C@@H]2O[C@H](C)C[C@H](N(C)C)[C@H]2O)[C@](C)(O)C[C@@H](C)CN(CCCNC(=S)NCCCc2ccccc2)[C@H](C)[C@@H](O)[C@]1(C)O [Example 7, 9-Deoxo-9-dihydro-9a-N-[N′-(3-phenylpropyl)thiocarbamoyl-γ-aminopropyl]-9a-aza-9a-homoerithromycin A] | 16 µg/mL | 16 µg/mL | 1 µg/mL | 2 µg/mL | 4 µg/mL | ≦0.125 μg/ml | 1 µg/mL | 8 µg/mL | ≦0.125 μg/ml |
| CC[C@H]1OC(=O)[C@H](C)[C@@H](O[C@H]2C[C@@](C)(OC)[C@@H](O)[C@H](C)O2)[C@H](C)[C@@H](O[C@@H]2O[C@H](C)C[C@H](N(C)C)[C@H]2O)[C@](C)(O)C[C@@H](C)CN(CCCNC(=O)NC(C)C)[C@H](C)[C@@H](O)[C@]1(C)O [Example 1, 9-Deoxo-9-dihydro-9a-N-(N′-isopropylcarbainoyl-γ-aminopropyl)-9a-aza-9a-homoerithromycin A] | 32 µg/mL | 16 µg/mL | 2 µg/mL | 32 µg/mL | 8 µg/mL | ≦0.125 μg/ml | 0.5 µg/mL | 32 µg/mL | ≦0.125 μg/ml |
| 9-Deoxo-9-dihydro-9a-N-[N′-(β-cyanoethyl)-N′-(3,4,5-trimethoxyphenyl)carbamoyl-γ-aminopropyl]-9a-aza-9a-homoerithromycin A [Example 37] | 16 µg/mL | 16 µg/mL | 4 µg/mL | 2 µg/mL | 47 µg/mL | ≦0.125 μg/ml | 1 µg/mL | 8 µg/mL | ≦0.125 μg/ml |
| CC[C@H]1OC(=O)[C@H](C)[C@@H](O[C@H]2C[C@@](C)(OC)[C@@H](O)[C@H](C)O2)[C@H](C)[C@@H](O[C@@H]2O[C@H](C)C[C@H](N(C)C)[C@H]2O)[C@](C)(O)C[C@@H](C)C(=O)[C@H](C)[C@@H](O)[C@]1(C)O [Er, erythromycin A, reference compound] | 1 µg/mL | 32 µg/mL | – | 2 µg/mL | >64 µg/mL | – | – | 8 µg/mL | 0.25 µg/mL |
